System: MV-4-11 cells
Experiment: Gene expression microarray analysis (Affymetrix PrimeView) and GSEA
Type: cell-based, human
Parameters: RFU PODN (11730768_x_at) / Fold change /veh PODN (11730768_x_at) / RFU LINC00158 (11744669_a_at) / Fold change /veh LINC00158 (11744669_a_at) / RFU DUSP10 (11751237_a_at) / Fold change /veh DUSP10 (11751237_a_at) / RFU ID3 (11757404_x_at) / Fold change /veh ID3 (11757404_x_at) / RFU PLEKHG5 (11737974_s_at) / Fold change /veh PLEKHG5 (11737974_s_at) / RFU LRRC4B (11730491_at) / Fold change /veh LRRC4B (11730491_at) / RFU GIMAP4 (11747438_a_at) / Fold change /veh GIMAP4 (11747438_a_at) / RFU KRT8 (11758183_x_at) / Fold change /veh KRT8 (11758183_x_at) / RFU CNN1 (11734310_a_at) / Fold change /veh CNN1 (11734310_a_at) / RFU VPS37D (11726825_at) / Fold change /veh VPS37D (11726825_at) / RFU C10orf10 (11716522_x_at) / Fold change /veh C10orf10 (11716522_x_at) / RFU KIR2DL2 /// KIR2DL4 /// KIR2DL5A /// KIR2DL5B /// KIR2DS1 /// KIR2DS2 /// KIR2DS3 /// KIR2DS4 /// KIR3DL3 /// KIR3DL3 /// KIR3DS1 (11738374_at) / Fold change /veh KIR2DL2 /// KIR2DL4 /// KIR2DL5A /// KIR2DL5B /// KIR2DS1 /// KIR2DS2 /// KIR2DS3 /// KIR2DS4 /// KIR3DL3 /// KIR3DL3 /// KIR3DS1 (11738374_at) / RFU C1QL1 (11718748_at) / Fold change /veh C1QL1 (11718748_at) / RFU TMPRSS4 (11747572_a_at) / Fold change /veh TMPRSS4 (11747572_a_at) / RFU HAMP (11756126_x_at) / Fold change /veh HAMP (11756126_x_at) / RFU RNFT2 (11725882_a_at) / Fold change /veh RNFT2 (11725882_a_at) / RFU NR4A2 (11747474_a_at) / Fold change /veh NR4A2 (11747474_a_at) / RFU ABCC12 (11746883_a_at) / Fold change /veh ABCC12 (11746883_a_at) / RFU TMEM136 (11760407_x_at) / Fold change /veh TMEM136 (11760407_x_at) / RFU CLDN22 /// WWC2 (11732394_at) / Fold change /veh CLDN22 /// WWC2 (11732394_at) / RFU HLA-DPB1 (11760878_x_at) / Fold change /veh HLA-DPB1 (11760878_x_at) / RFU SPINT1 (11716480_a_at) / Fold change /veh SPINT1 (11716480_a_at) / RFU GAP43 (11754022_s_at) / Fold change /veh GAP43 (11754022_s_at) / RFU A4GNT (11735810_at) / Fold change /veh A4GNT (11735810_at) / RFU PRB3 (11715151_x_at) / Fold change /veh PRB3 (11715151_x_at) / RFU TUBB4B (11761932_at) / Fold change /veh TUBB4B (11761932_at) / RFU CAPN14 (11732068_a_at) / Fold change /veh CAPN14 (11732068_a_at) / RFU TMCC2 (11721928_a_at) / Fold change /veh TMCC2 (11721928_a_at) / RFU IRGQ (11745062_a_at) / Fold change /veh IRGQ (11745062_a_at) / RFU FAM174B (11720279_a_at) / Fold change /veh FAM174B (11720279_a_at) / RFU TMPRSS4 (11748680_a_at) / Fold change /veh TMPRSS4 (11748680_a_at) / RFU FAM212B (11763350_a_at) / Fold change /veh FAM212B (11763350_a_at) / RFU PLEKHG5 (11743358_a_at) / Fold change /veh PLEKHG5 (11743358_a_at) / RFU ZSCAN30 (11745921_a_at) / Fold change /veh ZSCAN30 (11745921_a_at) / RFU CMKLR1 (11741424_a_at) / Fold change /veh CMKLR1 (11741424_a_at) / RFU LOC101060620 /// MAPK8IP1 (11723275_at) / Fold change /veh LOC101060620 /// MAPK8IP1 (11723275_at) / RFU SPTSSB (11747773_x_at) / Fold change /veh SPTSSB (11747773_x_at) / RFU PRSS12 (11739890_at) / Fold change /veh PRSS12 (11739890_at) / RFU BIN1 (11741810_x_at) / Fold change /veh BIN1 (11741810_x_at) / RFU WNT11 (11732464_a_at) / Fold change /veh WNT11 (11732464_a_at) / RFU C10orf10 (11716521_a_at) / Fold change /veh C10orf10 (11716521_a_at) / RFU C5orf56 (11738089_at) / Fold change /veh C5orf56 (11738089_at) / RFU CYB561 (11721691_x_at) / Fold change /veh CYB561 (11721691_x_at) / RFU ANKRD19P (11752326_a_at) / Fold change /veh ANKRD19P (11752326_a_at) / RFU OR2T12 /// OR2T33 /// OR2T8 (11738714_s_at) / Fold change /veh OR2T12 /// OR2T33 /// OR2T8 (11738714_s_at) / RFU VCAN (11748164_a_at) / Fold change /veh VCAN (11748164_a_at) / RFU JSRP1 (11732532_at) / Fold change /veh JSRP1 (11732532_at) / RFU KRTAP10-11 (11738290_x_at) / Fold change /veh KRTAP10-11 (11738290_x_at) / RFU MYO3A (11730013_a_at) / Fold change /veh MYO3A (11730013_a_at) / RFU EBF3 (11725865_a_at) / Fold change /veh EBF3 (11725865_a_at) / RFU CAMK2N1 (11719241_x_at) / Fold change /veh CAMK2N1 (11719241_x_at) / RFU C5orf56 (11738088_a_at) / Fold change /veh C5orf56 (11738088_a_at) / RFU OLFML3 (11715873_a_at) / Fold change /veh OLFML3 (11715873_a_at) / RFU LOC100653217 /// NTM (11731650_a_at) / Fold change /veh LOC100653217 /// NTM (11731650_a_at) / RFU MAPK11 (11762145_a_at) / Fold change /veh MAPK11 (11762145_a_at) / RFU FIZ1 (11724087_x_at) / Fold change /veh FIZ1 (11724087_x_at) / RFU OASL (11726364_x_at) / Fold change /veh OASL (11726364_x_at) / RFU SOX15 (11748057_x_at) / Fold change /veh SOX15 (11748057_x_at) / RFU CD79A (11719716_a_at) / Fold change /veh CD79A (11719716_a_at) / RFU HIST1H1D (11736915_at) / Fold change /veh HIST1H1D (11736915_at) / RFU CASKIN2 (11723855_a_at) / Fold change /veh CASKIN2 (11723855_a_at) / RFU LOC730098 (11760151_x_at) / Fold change /veh LOC730098 (11760151_x_at) / RFU OR4N2 (11742367_at) / Fold change /veh OR4N2 (11742367_at) / RFU PRRT2 (11749266_a_at) / Fold change /veh PRRT2 (11749266_a_at) / RFU SNX32 (11753110_a_at) / Fold change /veh SNX32 (11753110_a_at) / RFU CDHR5 (11726645_a_at) / Fold change /veh CDHR5 (11726645_a_at) / RFU RCAN1 (11760418_a_at) / Fold change /veh RCAN1 (11760418_a_at) / RFU FAM167A (11723789_a_at) / Fold change /veh FAM167A (11723789_a_at) / RFU FAM26E (11764081_at) / Fold change /veh FAM26E (11764081_at) / RFU ISYNA1 (11749810_s_at) / Fold change /veh ISYNA1 (11749810_s_at) / RFU ACY1 (11761880_at) / Fold change /veh ACY1 (11761880_at) / RFU 11764098_at / Fold change /veh 11764098_at / RFU SAMD14 (11745864_x_at) / Fold change /veh SAMD14 (11745864_x_at) / RFU NPB (11741838_a_at) / Fold change /veh NPB (11741838_a_at) / RFU TMPRSS6 (11731388_a_at) / Fold change /veh TMPRSS6 (11731388_a_at) / RFU KRTAP10-2 (11738614_at) / Fold change /veh KRTAP10-2 (11738614_at) / RFU ARHGAP8 /// PRR5-ARHGAP8 (11727945_x_at) / Fold change /veh ARHGAP8 /// PRR5-ARHGAP8 (11727945_x_at) / RFU KRTAP5-7 /// NADSYN1 (11734609_at) / Fold change /veh KRTAP5-7 /// NADSYN1 (11734609_at) / RFU RASL12 (11751679_a_at) / Fold change /veh RASL12 (11751679_a_at) / RFU CDKN2B (11736163_a_at) / Fold change /veh CDKN2B (11736163_a_at) / RFU PRF1 (11729649_at) / Fold change /veh PRF1 (11729649_at) / RFU, ZNF638 /// ZNF638-IT1 / Fold change vs veh, ZNF638 /// ZNF638-IT1 / RFU, PANK3 / Fold change vs veh, PANK3 / RFU, SH3YL1 / Fold change vs veh, SH3YL1 / RFU, ZEB2 / Fold change vs veh, ZEB2 / RFU, NRIP1 / Fold change vs veh, NRIP1 / RFU, PTTG1IP / Fold change vs veh, PTTG1IP / RFU, CAPN2 / Fold change vs veh, CAPN2 / RFU, MED14 / Fold change vs veh, MED14 / RFU, SNORA58 / Fold change vs veh, SNORA58 / RFU, C1orf63 / Fold change vs veh, C1orf63 / RFU, LRRFIP1 / Fold change vs veh, LRRFIP1 / RFU, NDUFAF7 / Fold change vs veh, NDUFAF7 / RFU, SLC12A2 / Fold change vs veh, SLC12A2 / RFU, IBTK / Fold change vs veh, IBTK / RFU, ESF1 / Fold change vs veh, ESF1 / Fold change vs veh, TMEM50B / RFU, TAOK1 / Fold change vs veh, TAOK1 / RFU, ACBD3 / Fold change vs veh, ACBD3 / RFU, TMA16 / Fold change vs veh, TMA16 / RFU, RWDD3 / Fold change vs veh, RWDD3 / RFU, BCAT1 / Fold change vs veh, BCAT1 / RFU, EDEM3 / Fold change vs veh, EDEM3 / RFU, TMEM33 / Fold change vs veh, TMEM33 / RFU, WDR75 / Fold change vs veh, WDR75 / RFU, AHCTF1 / Fold change vs veh, AHCTF1 / RFU, TFRC / Fold change vs veh, TFRC / RFU, ZDHHC17 / Fold change vs veh, ZDHHC17 / RFU, NOM1 / Fold change vs veh, NOM1 / RFU, ARL8B / Fold change vs veh, ARL8B / RFU, ZBTB11 / Fold change vs veh, ZBTB11 / RFU, TAMM41 / Fold change vs veh, TAMM41 / RFU, KIAA1704 /// LOC100996395 / Fold change vs veh, KIAA1704 /// LOC100996395 / RFU, ING1 / Fold change vs veh, ING1 / RFU, TRMT61B / Fold change vs veh, TRMT61B / RFU, FUBP3 / Fold change vs veh, FUBP3 / RFU, TP53 / Fold change vs veh, TP53 / RFU, TNKS2 / Fold change vs veh, TNKS2 / RFU, ZFP14 / Fold change vs veh, ZFP14 / RFU, ACTR2 / Fold change vs veh, ACTR2 / RFU, PPP3R1 / Fold change vs veh, PPP3R1 / RFU, PIK3R1 / Fold change vs veh, PIK3R1 / RFU, HNRNPA1 / Fold change vs veh, HNRNPA1 / RFU, RNF170 / Fold change vs veh, RNF170 / RFU, ZNF28 / Fold change vs veh, ZNF28 / RFU, RNGTT / Fold change vs veh, RNGTT / RFU, OGT / Fold change vs veh, OGT / RFU, BRD1 / Fold change vs veh, BRD1 / RFU, MARS / Fold change vs veh, MARS / RFU, ZNF655 / Fold change vs veh, ZNF655 / RFU, FAHD1 / Fold change vs veh, FAHD1 / RFU, BDP1 / Fold change vs veh, BDP1 / RFU, LRRCC1 / Fold change vs veh, LRRCC1 / RFU, ARID1A / Fold change vs veh, ARID1A / RFU, ZNF146 / Fold change vs veh, ZNF146 / RFU, ZNF330 / Fold change vs veh, ZNF330 / RFU, GPN3 / Fold change vs veh, GPN3 / RFU, C9orf123 / Fold change vs veh, C9orf123 / RFU, N4BP2L2 / Fold change vs veh, N4BP2L2 / RFU, ARFIP1 / Fold change vs veh, ARFIP1 / RFU, FAM179B / Fold change vs veh, FAM179B / RFU, BCL10 / Fold change vs veh, BCL10 / RFU, UHRF1BP1L / Fold change vs veh, UHRF1BP1L / RFU, BET1 / Fold change vs veh, BET1 / RFU, CNOT2 / Fold change vs veh, CNOT2 / RFU, ZNF268 / Fold change vs veh, ZNF268 / Fold change vs veh, ZNF507 / RFU, DGCR2 / Fold change vs veh, DGCR2 / RFU, WDSUB1 / Fold change vs veh, WDSUB1 / Fold change vs veh, HSP90B1 /// MIR3652 / RFU, ADSS / Fold change vs veh, ADSS / RFU, GK / Fold change vs veh, GK / RFU, ZNF148 / Fold change vs veh, ZNF148 / RFU, TAF9 / Fold change vs veh, TAF9 / RFU, SLC1A5 / Fold change vs veh, SLC1A5 / RFU, SLMO2 / Fold change vs veh, SLMO2 / RFU, ABCC4 / Fold change vs veh, ABCC4 / RFU, LOC101060439 /// RAP1B / Fold change vs veh, LOC101060439 /// RAP1B / RFU, RFX7 / Fold change vs veh, RFX7 / RFU, GTPBP10 / Fold change vs veh, GTPBP10 / RFU, CNEP1R1 / Fold change vs veh, CNEP1R1 / RFU, BIVM-ERCC5 /// ERCC5 / Fold change vs veh, BIVM-ERCC5 /// ERCC5 / RFU, ILF3 / Fold change vs veh, ILF3 / RFU 11762660_at / Fold change /veh 11762660_at / RFU VCAN (11757783_s_at) / Fold change /veh VCAN (11757783_s_at) / RFU DDX43 (11728927_at) / Fold change /veh DDX43 (11728927_at) / RFU KRT8 (11758188_x_at) / Fold change /veh KRT8 (11758188_x_at) / RFU NKD1 (11759106_at) / Fold change /veh NKD1 (11759106_at) / RFU SRD5A1 (11742802_a_at) / Fold change /veh SRD5A1 (11742802_a_at) / RFU TPSAB1 /// TPSB2 (11721975_s_at) / Fold change /veh TPSAB1 /// TPSB2 (11721975_s_at) / RFU GSTM3 (11746129_a_at) / Fold change /veh GSTM3 (11746129_a_at) / RFU IL23R (11737362_x_at) / Fold change /veh IL23R (11737362_x_at) / RFU TMEM51 (11727254_a_at) / Fold change /veh TMEM51 (11727254_a_at) / RFU PIWIL2 (11732686_x_at) / Fold change /veh PIWIL2 (11732686_x_at) / RFU ORM1 (11744905_x_at) / Fold change /veh ORM1 (11744905_x_at) / RFU CCDC152 (11743942_at) / Fold change /veh CCDC152 (11743942_at) / RFU ECM1 (11717891_a_at) / Fold change /veh ECM1 (11717891_a_at) / RFU IL23R (11748794_a_at) / Fold change /veh IL23R (11748794_a_at) / RFU TNFAIP8L3 (11732012_x_at) / Fold change /veh TNFAIP8L3 (11732012_x_at) / RFU MBOAT4 (11741988_at) / Fold change /veh MBOAT4 (11741988_at) / RFU 11764193_at / Fold change /veh 11764193_at / RFU TMEM53 (11763286_at) / Fold change /veh TMEM53 (11763286_at) / RFU MAGEB2 (11727129_at) / Fold change /veh MAGEB2 (11727129_at) / RFU TMEM200A (11744735_a_at) / Fold change /veh TMEM200A (11744735_a_at) / RFU CCDC152 (11751479_a_at) / Fold change /veh CCDC152 (11751479_a_at) / RFU FAM211A (11726209_a_at) / Fold change /veh FAM211A (11726209_a_at) / RFU RGS16 (11746705_a_at) / Fold change /veh RGS16 (11746705_a_at) / RFU VCAN (11755009_s_at) / Fold change /veh VCAN (11755009_s_at) / RFU RHOB (11743442_s_at) / Fold change /veh RHOB (11743442_s_at) / RFU RGS16 (11720943_a_at) / Fold change /veh RGS16 (11720943_a_at) / RFU RGS16 (11720944_at) / Fold change /veh RGS16 (11720944_at) / RFU, VPS4B / Fold change vs veh, VPS4B / RFU, CREB1 / Fold change vs veh, CREB1 / RFU, DNAJC13 / Fold change vs veh, DNAJC13 / RFU, GNAQ / Fold change vs veh, GNAQ / RFU, CDK5R1 / Fold change vs veh, CDK5R1 / RFU, ZRANB3 / Fold change vs veh, ZRANB3 / RFU, CUL4A / Fold change vs veh, CUL4A / RFU, CCNY / Fold change vs veh, CCNY / RFU, UFL1 / Fold change vs veh, UFL1 / RFU, COG3 / Fold change vs veh, COG3 / RFU, DIAPH2 / Fold change vs veh, DIAPH2 / RFU, SKA2 / Fold change vs veh, SKA2 / RFU, AFF3 / Fold change vs veh, AFF3 / RFU, LMF1 / Fold change vs veh, LMF1 / RFU, IPO11 / Fold change vs veh, IPO11 / RFU, DFFB / Fold change vs veh, DFFB / RFU, FOXP1 / Fold change vs veh, FOXP1 / RFU, CARD8 / Fold change vs veh, CARD8 / RFU, STRN3 / Fold change vs veh, STRN3 / RFU, ADK / Fold change vs veh, ADK / RFU, RASSF2 / Fold change vs veh, RASSF2 / RFU, WIPF1 / Fold change vs veh, WIPF1 / RFU, LARP1B / Fold change vs veh, LARP1B / RFU, RASA1 / Fold change vs veh, RASA1 / RFU, RB1 / Fold change vs veh, RB1 / RFU, PPFIA1 / Fold change vs veh, PPFIA1 / RFU, MAT2A / Fold change vs veh, MAT2A / RFU, CCT5 / Fold change vs veh, CCT5 / RFU, WDR92 / Fold change vs veh, WDR92 / RFU, CUX1 / Fold change vs veh, CUX1 / RFU, TTC7A / Fold change vs veh, TTC7A / RFU, TMEM135 / Fold change vs veh, TMEM135 / RFU, DEPTOR / Fold change vs veh, DEPTOR / RFU, CPM / Fold change vs veh, CPM / RFU, DNAJB6 / Fold change vs veh, DNAJB6 / RFU, CACNA2D3 / Fold change vs veh, CACNA2D3 / RFU, DTX4 / Fold change vs veh, DTX4 / RFU, TFCP2 / Fold change vs veh, TFCP2 / RFU, GMCL1 /// GMCL1P1 / Fold change vs veh, GMCL1 /// GMCL1P1 / RFU, AEBP2 / Fold change vs veh, AEBP2 / RFU, SNHG1 /// SNORD22 /// SNORD25 /// SNORD26 /// SNORD27 /// SNORD28 /// SNORD29 /// SNORD31 / Fold change vs veh, SNHG1 /// SNORD22 /// SNORD25 /// SNORD26 /// SNORD27 /// SNORD28 /// SNORD29 /// SNORD31 / Fold change (Aza/veh), C12orf56 (ProbeSet 11735607_a_at) / Fold change (ACY-1035/veh), C12orf56 (ProbeSet 11735607_a_at) / Fold change (Aza/veh), FGFR1OP (ProbeSet 11751329_s_at) / Fold change (ACY-1035/veh), FGFR1OP (ProbeSet 11751329_s_at) / Fold change (Aza/veh), VPS36 (ProbeSet 11739960_a_at) / Fold change (ACY-1035/veh), VPS36 (ProbeSet 11739960_a_at) / RFU SYPL1 (11715823_x_at) / Fold change /veh SYPL1 (11715823_x_at) / RFU IGFBP7 (11715501_s_at) / Fold change /veh IGFBP7 (11715501_s_at) / RFU REEP3 (11722064_at) / Fold change /veh REEP3 (11722064_at) / RFU IGLL1 (11728026_x_at) / Fold change /veh IGLL1 (11728026_x_at): dose or concentration left out as unconfirmed
Conditions: MV-4-11 cells, 48 hours

Nc1ncn([C@@H]2O[C@H](CO)[C@@H](O)[C@H]2O)c(=O)n1 [azacitidine]
RFU CMKLR1 (11741424_a_at): 16.54 RFU
